ChEMBL document CHEMBL1201862, “PubChem BioAssay data set” (2004)
Calls of active or inactive are those of the source.

Legend:
[1] = cytotoxicity toward DRD oncogenic fibroblasts, dose response, cell-based, non-viral oncogenic, luminescence (AID 1934); type: functional; details: Homo sapiens
BJ [2] = test: cytotoxicity toward Ras-transformed BJeLR fibroblasts, dose response, cell-based, alamar blue fluorescence, cherrypicked samples (AID 2631); type: functional; details: Homo sapiens;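 further: confirmatory dose-response assay in RAS-dependent BJ fibroblasts engineered with TERT, LT and ST, with cytotoxicity read by fluorescence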
BJ [3] = test: cytotoxicity toward BJ-TERT fibroblasts, dose response, cell-based, RAS-independent, luminescence (AID 1933); type: functional; details: Homo sapiens
BJ [4] = test: cytotoxicity toward BJ-TERT-LT-ST fibroblasts, dose response, cell-based, RAS-independent, luminescence (AID 1935); type: functional; details: Homo sapiens;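 further: BJ fibroblasts immortalized with TERT plus LT and ST oncogenes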
[5] = molecular target: G-protein coupled receptor 55 (Homo sapiens, UniProt Q9Y2T6); test: GPR55 agonists via beta-arrestin recruitment, primary screen, imaging, U2OS cells, beta-arrestin-GFP redistribution (AID 1961); type: functional
[6] = molecular target: T1, Microphthalmia-associated transcription factor (Homo sapiens, UniProt O75030); test: TRPM1 promoter luciferase signal decrease, dose response, MITF inhibitor project, cell-based, SK-MEL-5, cherry-picked, set 3 (AID 493073); type: functional
T1 sequence (O75030 whole entry): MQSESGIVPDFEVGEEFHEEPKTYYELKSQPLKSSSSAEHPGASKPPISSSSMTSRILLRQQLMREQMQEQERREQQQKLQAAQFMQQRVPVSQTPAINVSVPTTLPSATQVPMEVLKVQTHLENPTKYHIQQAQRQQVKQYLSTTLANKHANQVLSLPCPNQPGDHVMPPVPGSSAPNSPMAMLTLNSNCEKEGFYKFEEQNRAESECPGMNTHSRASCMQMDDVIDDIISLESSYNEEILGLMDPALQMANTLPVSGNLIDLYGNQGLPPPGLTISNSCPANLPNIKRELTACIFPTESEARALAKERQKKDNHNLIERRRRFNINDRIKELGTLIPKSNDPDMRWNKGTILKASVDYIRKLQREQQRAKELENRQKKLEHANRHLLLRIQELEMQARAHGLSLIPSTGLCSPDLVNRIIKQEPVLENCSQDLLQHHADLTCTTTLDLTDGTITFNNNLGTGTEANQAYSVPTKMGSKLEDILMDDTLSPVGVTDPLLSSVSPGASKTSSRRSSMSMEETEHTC

BJ [7] = test: cells; type: functional, cell-based; details: Homo sapiens
[8] = molecular target: NACHT, LRR and PYD domains-containing protein 1 (Homo sapiens, UniProt Q9C000); test: NALP1 inhibitors in yeast, dose response, luminescent (AID 488860); type: functional
Saccharomyces cerevisiae = test: NALP1 inhibitor project selectivity study, Caspase-1/ASC signal blockade IC50 in S. cerevisiae (AID 488863); type: functional, organism-based
Prothrombin = Prothrombin (Homo sapiens, UniProt P00734); test: Thrombin 1536 HTS Dose Response Confirmation. [Related pubchem assays: 1046 (Thrombin 1536 HTS; hits were confirmed in this assay)]; type: functional
[9] = molecular target: DNA dC->dU-editing enzyme APOBEC-3A (Homo sapiens, UniProt P31941); test: APOBEC3A DNA deaminase inhibitors, dose response, biochemical (AID 504722); type: functional
[10] = molecular target: FAD-linked sulfhydryl oxidase ALR (Homo sapiens, UniProt P55789); test: inhibitors of human ALR sulfhydryl oxidase, dose response, biochemical, H2O2 detection, luminescence, cherry-pick (AID 493248)
[11] = molecular target: DNA dC->dU-editing enzyme APOBEC-3G (Homo sapiens, UniProt Q9HC16); test: Dose Response confirmation of small molecule APOBEC3G DNA Deaminase Inhibitors via a fluorescence-based single-stranded DNA deaminase assay. [Related pubchem assays (depositor defined):AID493012, AID493028]; type: functional
Phosphomannomutase 2 = Phosphomannomutase 2 (Homo sapiens, UniProt O15305); test: Counter screen SAR assay for PMM2 inhibitors via a fluorescence intensity assay. [Related pubchem assays (depositor defined):AID1545, AID1574]
[12] = molecular target: Diphosphomevalonate decarboxylase (Streptococcus pneumoniae serotype 2 (strain D39 / NCTC 7466), UniProt Q9FD53); test: S. pneumoniae DPM-DC inhibition retest, confirmation, biochemical, cuvette format, coupled NADH fluorescence (AID 1028); type: functional
[13] = molecular target: T2, Alkaline phosphatase, tissue-nonspecific isozyme (Homo sapiens, UniProt P05186); test: human TNAP enzyme inhibitors, SAR follow-up, biochemical, luminescent, dose response (AID 1056)
T2 sequence (P05186 whole entry): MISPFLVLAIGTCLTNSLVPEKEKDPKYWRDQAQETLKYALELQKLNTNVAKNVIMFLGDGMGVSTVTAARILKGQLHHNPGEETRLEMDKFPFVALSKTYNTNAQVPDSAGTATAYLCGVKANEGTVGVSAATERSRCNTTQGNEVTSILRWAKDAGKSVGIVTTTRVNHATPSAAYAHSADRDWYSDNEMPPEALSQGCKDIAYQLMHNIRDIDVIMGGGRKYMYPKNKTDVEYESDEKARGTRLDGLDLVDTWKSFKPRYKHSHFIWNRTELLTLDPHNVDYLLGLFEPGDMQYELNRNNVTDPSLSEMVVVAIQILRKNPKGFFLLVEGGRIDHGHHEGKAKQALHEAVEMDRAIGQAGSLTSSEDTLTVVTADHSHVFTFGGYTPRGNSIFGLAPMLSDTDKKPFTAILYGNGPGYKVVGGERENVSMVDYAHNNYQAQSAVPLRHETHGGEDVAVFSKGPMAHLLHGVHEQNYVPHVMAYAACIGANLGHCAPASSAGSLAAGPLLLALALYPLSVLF

[14] = molecular target: Phosphoethanolamine/phosphocholine phosphatase (Homo sapiens, UniProt Q8TCT1); test: SAR assay for compounds that inhibit PHOSPHO1. [Related pubchem assays (depositor defined):AID1545, AID1565, AID1574]
[15] = molecular target: T3, Mannose-6-phosphate isomerase (Homo sapiens, UniProt P34949); test: PMI enzyme inhibitors, confirmation, biochemical, fluorescence intensity (AID 1535)
T3 sequence (P34949 whole entry): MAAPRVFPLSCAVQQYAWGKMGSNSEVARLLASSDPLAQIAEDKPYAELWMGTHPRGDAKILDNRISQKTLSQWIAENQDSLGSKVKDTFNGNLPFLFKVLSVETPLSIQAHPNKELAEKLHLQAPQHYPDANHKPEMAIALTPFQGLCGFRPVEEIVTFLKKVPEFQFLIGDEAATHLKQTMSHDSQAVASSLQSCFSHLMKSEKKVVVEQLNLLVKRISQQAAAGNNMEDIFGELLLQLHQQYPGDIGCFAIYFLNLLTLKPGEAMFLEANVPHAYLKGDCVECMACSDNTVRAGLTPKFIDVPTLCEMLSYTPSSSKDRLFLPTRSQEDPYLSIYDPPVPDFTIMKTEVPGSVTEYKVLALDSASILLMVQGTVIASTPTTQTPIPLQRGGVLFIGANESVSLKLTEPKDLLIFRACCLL

Sequence of Phosphoethanolamine/phosphocholine phosphatase (Q8TCT1 whole entry): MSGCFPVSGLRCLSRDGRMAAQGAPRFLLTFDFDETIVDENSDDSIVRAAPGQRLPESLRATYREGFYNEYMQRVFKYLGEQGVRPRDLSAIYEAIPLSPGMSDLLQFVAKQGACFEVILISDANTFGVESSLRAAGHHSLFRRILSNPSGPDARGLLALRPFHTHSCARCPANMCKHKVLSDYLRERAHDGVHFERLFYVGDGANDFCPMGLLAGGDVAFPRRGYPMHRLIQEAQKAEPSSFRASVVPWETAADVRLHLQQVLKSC
Sequence of DNA dC->dU-editing enzyme APOBEC-3A (P31941 whole entry): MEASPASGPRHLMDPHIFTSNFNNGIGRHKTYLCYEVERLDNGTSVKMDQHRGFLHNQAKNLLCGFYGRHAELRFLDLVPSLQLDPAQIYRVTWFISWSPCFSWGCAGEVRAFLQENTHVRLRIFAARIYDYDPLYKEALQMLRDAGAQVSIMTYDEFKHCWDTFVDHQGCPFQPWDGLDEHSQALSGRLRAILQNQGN
Sequence of FAD-linked sulfhydryl oxidase ALR (P55789 whole entry): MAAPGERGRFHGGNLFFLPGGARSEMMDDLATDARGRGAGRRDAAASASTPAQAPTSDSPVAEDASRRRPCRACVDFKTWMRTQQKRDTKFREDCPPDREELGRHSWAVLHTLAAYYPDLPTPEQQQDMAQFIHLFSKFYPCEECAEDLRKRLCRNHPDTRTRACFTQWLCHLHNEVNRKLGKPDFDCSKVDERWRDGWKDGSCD
Sequence of Diphosphomevalonate decarboxylase (Q9FD53 whole entry): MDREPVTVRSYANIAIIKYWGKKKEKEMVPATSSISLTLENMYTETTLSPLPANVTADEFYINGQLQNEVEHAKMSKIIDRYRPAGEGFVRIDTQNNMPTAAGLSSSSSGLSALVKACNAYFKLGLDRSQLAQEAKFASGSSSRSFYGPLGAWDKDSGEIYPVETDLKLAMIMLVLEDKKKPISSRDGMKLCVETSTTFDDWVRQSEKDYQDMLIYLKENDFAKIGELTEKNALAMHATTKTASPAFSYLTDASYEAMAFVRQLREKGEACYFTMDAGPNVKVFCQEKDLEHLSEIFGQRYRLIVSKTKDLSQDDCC
Sequence of G-protein coupled receptor 55 (Q9Y2T6 whole entry): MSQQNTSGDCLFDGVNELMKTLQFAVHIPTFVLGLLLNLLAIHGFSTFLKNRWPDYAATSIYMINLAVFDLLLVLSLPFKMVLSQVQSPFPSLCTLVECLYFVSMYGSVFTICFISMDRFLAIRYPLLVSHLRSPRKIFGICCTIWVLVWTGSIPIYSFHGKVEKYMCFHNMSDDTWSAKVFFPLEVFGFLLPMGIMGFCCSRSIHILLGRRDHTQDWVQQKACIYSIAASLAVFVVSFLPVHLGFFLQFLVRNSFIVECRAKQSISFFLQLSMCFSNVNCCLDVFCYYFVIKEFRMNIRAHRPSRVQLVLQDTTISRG
Sequence of Phosphomannomutase 2 (O15305 whole entry): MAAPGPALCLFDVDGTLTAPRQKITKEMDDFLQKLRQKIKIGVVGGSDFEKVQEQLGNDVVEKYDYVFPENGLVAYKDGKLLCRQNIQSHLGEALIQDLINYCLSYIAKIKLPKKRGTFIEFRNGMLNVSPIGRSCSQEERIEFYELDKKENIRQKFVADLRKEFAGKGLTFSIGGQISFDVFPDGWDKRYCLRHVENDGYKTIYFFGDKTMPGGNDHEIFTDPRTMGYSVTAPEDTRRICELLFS
Sequence of DNA dC->dU-editing enzyme APOBEC-3G (Q9HC16 whole entry): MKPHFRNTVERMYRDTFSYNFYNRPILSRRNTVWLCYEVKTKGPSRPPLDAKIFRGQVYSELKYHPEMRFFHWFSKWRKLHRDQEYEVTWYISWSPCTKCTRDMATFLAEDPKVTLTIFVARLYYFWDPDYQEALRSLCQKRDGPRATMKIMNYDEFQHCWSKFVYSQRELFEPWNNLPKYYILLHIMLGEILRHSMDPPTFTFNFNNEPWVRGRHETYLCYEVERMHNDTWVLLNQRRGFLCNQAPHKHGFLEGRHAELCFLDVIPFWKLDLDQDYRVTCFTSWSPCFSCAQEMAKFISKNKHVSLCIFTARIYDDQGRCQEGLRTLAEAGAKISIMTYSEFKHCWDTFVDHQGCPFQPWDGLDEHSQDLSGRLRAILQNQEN
Sequence of NACHT, LRR and PYD domains-containing protein 1 (Q9C000 1-1212 limits assumed): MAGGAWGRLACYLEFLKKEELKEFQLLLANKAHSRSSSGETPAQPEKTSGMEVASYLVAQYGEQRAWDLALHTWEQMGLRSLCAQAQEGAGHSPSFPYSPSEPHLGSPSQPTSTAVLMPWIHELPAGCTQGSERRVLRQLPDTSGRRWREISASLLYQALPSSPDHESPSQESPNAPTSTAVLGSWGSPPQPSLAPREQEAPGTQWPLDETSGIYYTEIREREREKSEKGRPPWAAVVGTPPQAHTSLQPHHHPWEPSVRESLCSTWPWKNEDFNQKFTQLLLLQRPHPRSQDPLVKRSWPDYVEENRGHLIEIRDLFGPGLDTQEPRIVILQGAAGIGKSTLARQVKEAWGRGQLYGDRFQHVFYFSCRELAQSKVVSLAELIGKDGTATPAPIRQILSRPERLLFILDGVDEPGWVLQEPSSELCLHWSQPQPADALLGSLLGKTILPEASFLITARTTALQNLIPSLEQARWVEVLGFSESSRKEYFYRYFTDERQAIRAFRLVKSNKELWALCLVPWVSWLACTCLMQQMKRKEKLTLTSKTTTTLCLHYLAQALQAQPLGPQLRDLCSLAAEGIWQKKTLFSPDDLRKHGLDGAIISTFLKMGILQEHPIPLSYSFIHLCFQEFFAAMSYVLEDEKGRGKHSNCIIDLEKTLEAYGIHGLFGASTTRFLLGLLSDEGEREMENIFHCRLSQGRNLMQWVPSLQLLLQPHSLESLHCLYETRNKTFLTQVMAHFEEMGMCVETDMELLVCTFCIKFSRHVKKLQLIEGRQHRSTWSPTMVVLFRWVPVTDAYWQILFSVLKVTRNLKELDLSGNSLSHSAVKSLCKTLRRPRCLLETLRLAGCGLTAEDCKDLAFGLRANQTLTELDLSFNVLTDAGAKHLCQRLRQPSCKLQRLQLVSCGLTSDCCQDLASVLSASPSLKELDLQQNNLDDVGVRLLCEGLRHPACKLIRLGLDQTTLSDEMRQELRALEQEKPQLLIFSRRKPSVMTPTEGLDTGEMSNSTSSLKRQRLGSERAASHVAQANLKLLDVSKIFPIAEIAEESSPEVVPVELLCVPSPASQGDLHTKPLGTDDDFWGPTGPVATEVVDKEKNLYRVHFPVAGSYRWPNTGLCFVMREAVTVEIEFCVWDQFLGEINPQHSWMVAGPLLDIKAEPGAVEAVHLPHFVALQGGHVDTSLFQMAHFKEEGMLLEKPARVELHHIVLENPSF
Sequence of NACHT, LRR and PYD domains-containing protein 1 (Q9C000 1213-1473 limits assumed): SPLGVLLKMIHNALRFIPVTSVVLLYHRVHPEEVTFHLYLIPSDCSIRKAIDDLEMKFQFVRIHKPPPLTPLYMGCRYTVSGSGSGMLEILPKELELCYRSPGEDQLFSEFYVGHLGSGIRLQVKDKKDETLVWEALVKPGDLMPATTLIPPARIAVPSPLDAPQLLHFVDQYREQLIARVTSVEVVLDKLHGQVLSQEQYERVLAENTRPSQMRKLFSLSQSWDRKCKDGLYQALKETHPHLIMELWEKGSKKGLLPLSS

## COc1ccc(C(=O)/C=C/C(=O)N(CC(=O)NC2CCCCC2)Cc2ccccc2OC)c(O)c1
[1]
  EC50: 3.39 µM (active)
BJ [2]
  EC50: 5.02 µM (inconclusive)
BJ [3]
  EC50: 2.2 µM (active)
BJ [4]
  EC50: 2.57 µM (inconclusive)
[5]
  EC50: > 32 µM (inactive)
[6]
  AC50: 4.04 µM (active)
BJ [7]
  EC50: 3.7 µM (active)

## COCC(=O)n1nc(-c2ccc(Cl)cc2)nc1NCc1ccc(F)cc1
[8]
  IC50: > 100 µM (inactive)
Saccharomyces cerevisiae
  IC50: > 100 µM (inactive)
Prothrombin
  IC50: 1.8 µM (active)

## CCn1c(-c2ccc(Cl)cc2)n[nH]c1=S
[9]
  IC50: > 100 µM (inactive)
[10]
  AC50: 6.5 µM (active)
[11]
  IC50: 5.43 µM (active)

## O=C(NCc1ccccc1)c1cccc(-n2sc3ccccc3c2=O)c1
Phosphomannomutase 2
  IC50: 17.8 µM (active)
[12]
  IC50: 4.74 µM (active)
[13]
  IC50: > 100 µM (inactive)
[14]
  IC50: 2.33 µM (inactive)
[15]
  IC50: 2.25 µM (active)
